From patent US5151517A, “Derivatives of tetrahydro-2,3,6,7,1H,5H,11H-(1)benzopyrano(6,7,8,i,j)quinolizinone-11 usable as markers for organic compounds, particularly biological compounds with a view to their detection by chemiluminescence or fluorescence” (Laboratories Eurobio, priority 1989, dated 1992)

How the values were obtained:
[1] = Hydrosolubility of a dried aliquot of luminarine-7; assay type: physicochemical; conditions: dried aliquot portion
Procedure: (§1) Stirring takes place for 2 hours and then the dicyclohexylurea formed is filtered. The remaining product, luminarine-7, is kept in solution in dimethyl formamide.

[2] = Storage stability of luminarine-7 in dimethyl formamide solution; assay type: physicochemical; conditions: -20° C., in the presence of P2O5
Procedure: as §1

[3] = reference standard; 2 mg/l in 0.1N H2SO4; cited from earlier work
[4] = Fluorescence measurements (quantum efficiency vs quinine disulphate, sensitivity); assay type: physicochemical; conditions: for S = fluorescence sensitivity: acetone/ethyl acetate 75:25; for RF = fluorescence quantum efficiency: acetone/ethyl acetate 75:25, 10^-6 mole/l coumarin, 20 ± 2° C., vs quinine disulphate
Procedure: The fluorescence measurements are carried out with a Perkin Elmer LS5 spectrifluorometer with 2 nm slit widths for two monochromators.
(§2) Fluorescence and Absorbance Measurements
(§3) These measurements were carried out at 20^+ 2° C. and the quantum efficiencies of fluorescence RF of coumarins-1, 311 and 102 were determined compared with quinine disulphate, whose fluorescence quantum efficiency is 0.546 using the Parker method described in Analyst, 85, 1960, p. 587 using a 2 mg/l quinine disulphate solution in 0.1N H2 SO4.
(§4) For the coumarins, use was made of a solution of acetone and ethyl acetate in a volume ratio of 75:25 with a 10^-6 mole/l coumarin concentration ensuring in each case an absorbance below 0.05.

[5] = Chemiluminescence measurements with TCPO and H2O2; assay type: physicochemical; conditions: TCPO = bis(trichloro-2,4,6 phenyl) oxalate; for RC = chemiluminescence quantum efficiency: 10^-3 mole/l coumarin, imidazole nitrate buffer pH 7.5; for RE = excitation efficiency: RC = Rex × RF
Procedure: (§5) The absorbance measurements were carried out with a Jobin Yvon JY3 spectrophotometer. The chemiluminescence measurements were obtained by using a Jobin Yvon JY4 spectrofluorimeter with 10 nm slit widths. The cell for the liquid samples is a 10×10 mm quart cell with a capacity of 3 ml and filled with 2 ml of solution, which corresponds to a real solution volume exposed to the photomultiplier of 1.35 ml.
(§6) In order to determine the chemiluminescence quantum efficiencies Rc, the intensity was estimated as a function of time at the emission maximum. When the intensity decrease is relatively low, the emission spectrum is plotted and then the intensity is followed as a function of time until it has dropped to 2% of the maximum intensity.
(§7) The other luminescence parameters are measured directly. These consist of the maximum intensity (lmax), the time for reaching the maximum intensity (Tmax) and the time for reaching half the maximum intensity following the maximum time (T1/2).
(§8) The chemi luminescence efficiency Rc is calculated by the Rauhut method described in J. Am. Chem. Soc., 88, 15, 1966, p.3604.
(§9) The excitation efficiency Rex is determined on the basis of the formula: […]
(§10) For chemiluminescence measurements with TCPO, to 1 ml of the solution containing 10^-3 mole/l of coumarin are added 0.5 ml of a 2·10^-3 mole/l TCPO solution in ethyl acetate, 0.5 ml of a 2·10^-2 mole/l H2 O2 solution in acetone and 10 μl of a 0.1 mole/l imidazole nitrate buffer at pH 7.5. When DNPO is used, to the same solution of coumarin in acetone are added 0.5 ml of a 10^-3 mole/l DNPO solution in ethyl acetate and 0.5 ml of a 10^-2 mole/l H2 O2 solution in acetone.

[6] = Absorbance measurements (molecular extinction coefficient); assay type: physicochemical; conditions: acetone/ethyl acetate 75:25, 10^-6 mole/l coumarin
Procedure: as §5, §2, §3, §4

[7] = Chemiluminescence measurements with DNPO (printed DMPO in table 2) and H2O2; assay type: physicochemical; conditions: DMPO = bis(dinitro-2,4 phenyl)oxalate; for RC = chemiluminescence quantum efficiency: 10^-3 mole/l coumarin; for RE = excitation efficiency: RC = Rex × RF
Procedure: as §5, §6, §7, §8, §9, §10

[8] = Chemiluminescence with TCPO and H2O2 as a function of the coumarin-102 concentration; assay type: physicochemical; conditions: for Imax (maximum intensity) / RC × 10^4 (chemiluminescence efficiency) / T1/2 (time for reaching half the maximum intensity following the maximum time) / Tmax (time for reaching the maximum intensity): TCPO and H2O2
Procedure: The absorbance measurements were carried out with a Jobin Yvon JY3 spectrophotometer. The chemiluminescence measurements were obtained by using a Jobin Yvon JY4 spectrofluorimeter with 10 nm slit widths. The cell for the liquid samples is a 10×10 mm quart cell with a capacity of 3 ml and filled with 2 ml of solution, which corresponds to a real solution volume exposed to the photomultiplier of 1.35 ml. In order to determine the chemiluminescence quantum efficiencies Rc, the intensity was estimated as a function of time at the emission maximum. […] The other luminescence parameters are measured directly. These consist of the maximum intensity (lmax), the time for reaching the maximum intensity (Tmax) and the time for reaching half the maximum intensity following the maximum time (T1/2). The chemi luminescence efficiency Rc is calculated by the Rauhut method described in J. Am. Chem. […] When DNPO is used, to the same solution of coumarin in acetone are added 0.5 ml of a 10^-3 mole/l DNPO solution in ethyl acetate and 0.5 ml of a 10^-2 mole/l H2 O2 solution in acetone.

[9] = Comparison of fluorescence, absorbance and chemiluminescence properties of coumarin nuclei; assay type: physicochemical; conditions: compared with coumarine-1 and coumarine-311, tables 1 and 2
Procedure: The fluorescence measurements are carried out with a Perkin Elmer LS5 spectrifluorometer with 2 nm slit widths for two monochromators. The absorbance measurements were carried out with a Jobin Yvon JY3 spectrophotometer. The chemiluminescence measurements were obtained by using a Jobin Yvon JY4 spectrofluorimeter with 10 nm slit widths. The cell for the liquid samples is a 10×10 mm quart cell with a capacity of 3 ml and filled with 2 ml of solution, which corresponds to a real solution volume exposed to the photomultiplier of 1.35 ml. […] For the coumarins, use was made of a solution of acetone and ethyl acetate in a volume ratio of 75:25 with a 10^-6 mole/l coumarin concentration ensuring in each case an absorbance below 0.05. […] When DNPO is used, to the same solution of coumarin in acetone are added 0.5 ml of a 10^-3 mole/l DNPO solution in ethyl acetate and 0.5 ml of a 10^-2 mole/l H2 O2 solution in acetone.

[10] = Chemiluminescence as a function of the pH of the solution; assay type: physicochemical
Procedure: as §5, §6, §7, §8, §10
Table 4 gives the variations of the chemiluminescence efficiency, lmax, Tmax and T1/2, as a function of the pH of the solution. […] However, the values for Tmax and T1/2 decrease when the pH increases beyond 5.

Compound: O=C(CCC(=O)ON1C(=O)CCC1=O)NCCOCCOCCOCCOCCOCCNC(=O)Cc1cc(=O)oc2c3c4c(cc12)CCCN4CCC3 [luminarine-7]
- hydrosolubility [1]: total hydrosolubility
- storage stability [2]: several months at -20 °C without any deterioration

Compound: C=CC1CN2CCC1CC2C(O)c1ccnc2ccc(OC)cc12 (stereo not drawn) [quinine disulphate]
- fluorescence quantum efficiency [3]: 0.546

Compound: CCN(CC)c1ccc2c(C)cc(=O)oc2c1 [COUMARINE-1, dimethylamino-7 methyl-4 coumarin]
- S = fluorescence sensitivity [4]: 57 10^3
- RF = fluorescence quantum efficiency [4]: 0.55
- RC = chemiluminescence quantum efficiency [5]: 0.37 10^2 E · mole^-1
- RE = excitation efficiency [5]: 0.67 10^2
- ε = molecular extinction coefficient, 365 nm [6]: 38 000
- RC = chemiluminescence quantum efficiency [7]: 0.18 10^2 E · mole^-1
- RE = excitation efficiency [7]: 0.33 10^2

Compound: Cc1cc(=O)oc2c3c4c(cc12)CCCN4CCC3 [COUMARINE-102, tetrahydro-2,3,5,6,7,1H,5H,11H-(1)-benzopyrano(6,7,8-ij)methyl-9 quinolizinone-11]
- S = fluorescence sensitivity [4]: 36 10^3
- RF = fluorescence quantum efficiency [4]: 0.57
- Imax (maximum intensity) ([8]; (C102) 1.4 × 10^-3): 301 A.U.
- RC × 10^4 (chemiluminescence efficiency) ([8]; (C102) 1.4 × 10^-3): 12.0 E · mole^-1
- T1/2 (time for reaching half the maximum intensity following the maximum time) ([8]; (C102) 1.4 × 10^-3): 6 s
- Tmax (time for reaching the maximum intensity) ([8]; (C102) 1.4 × 10^-3): 12 s
- Imax (maximum intensity) ([8]; (C102) 1.4 × 10^-6): 75 A.U.
- RC × 10^4 (chemiluminescence efficiency) ([8]; (C102) 1.4 × 10^-6): 4.14 E · mole^-1
- T1/2 (time for reaching half the maximum intensity following the maximum time) ([8]; (C102) 1.4 × 10^-6): 9 s
- Tmax (time for reaching the maximum intensity) ([8]; (C102) 1.4 × 10^-6): 12 s
- Imax (maximum intensity) ([8]; (C102) 1.4 × 10^-7): 31 A.U.
- RC × 10^4 (chemiluminescence efficiency) ([8]; (C102) 1.4 × 10^-7): 2.31 E · mole^-1
- T1/2 (time for reaching half the maximum intensity following the maximum time) ([8]; (C102) 1.4 × 10^-7): 7.2 s
- Tmax (time for reaching the maximum intensity) ([8]; (C102) 1.4 × 10^-7): 12 s
- Imax (maximum intensity) ([8]; (C102) 1.4 × 10^-8): 3.2 A.U.
- RC × 10^4 (chemiluminescence efficiency) ([8]; (C102) 1.4 × 10^-8): 0.40 E · mole^-1
- T1/2 (time for reaching half the maximum intensity following the maximum time) ([8]; (C102) 1.4 × 10^-8): 6 s
- Tmax (time for reaching the maximum intensity) ([8]; (C102) 1.4 × 10^-8): 12 s
- Imax (maximum intensity) ([8]; (C102) 1.4 × 10^-9): 0.3 A.U.
- RC × 10^4 (chemiluminescence efficiency) ([8]; (C102) 1.4 × 10^-9): 0.20 E · mole^-1
- T1/2 (time for reaching half the maximum intensity following the maximum time) ([8]; (C102) 1.4 × 10^-9): 4.8 s
- Tmax (time for reaching the maximum intensity) ([8]; (C102) 1.4 × 10^-9): 12 s
- chemiluminescence efficiency as a function of concentration ([8]; TCPO and H2O2, table 3): chemiluminescence efficiency increases with the coumar in-102 concentration
- RC = chemiluminescence quantum efficiency [5]: 0.37 10^2 E · mole^-1
- RE = excitation efficiency [5]: 0.65 10^2
- ε = molecular extinction coefficient, 365 nm [6]: 23000 M⁻¹ cm⁻¹
- fluorescence, absorbance and chemiluminescence properties [9]: better fluorescence, absorbance and chemiluminescece properties
- Imax (maximum intensity) ([10]; pH 4): 24 A.U.
- RC × 10^4 (chemiluminescence efficiency) ([10]; pH 4): 1.52 E · mole^-1
- T1/2 (time for reaching half the maximum intensity following the maximum time) ([10]; pH 4): 300 s
- Tmax (time for reaching the maximum intensity) ([10]; pH 4): 48 s
- Imax (maximum intensity) ([10]; pH 5): 17 A.U.
- RC × 10^4 (chemiluminescence efficiency) ([10]; pH 5): 1.58 E · mole^-1
- T1/2 (time for reaching half the maximum intensity following the maximum time) ([10]; pH 5): 360 s
- Tmax (time for reaching the maximum intensity) ([10]; pH 5): 60 s
- Imax (maximum intensity) ([10]; pH 6): 25 A.U.
- RC × 10^4 (chemiluminescence efficiency) ([10]; pH 6): 2.34 E · mole^-1
- T1/2 (time for reaching half the maximum intensity following the maximum time) ([10]; pH 6): 336 s
- Tmax (time for reaching the maximum intensity) ([10]; pH 6): 48 s
- Imax (maximum intensity) ([10]; pH 7): 110 A.U.
- RC × 10^4 (chemiluminescence efficiency) ([10]; pH 7): 2.23 E · mole^-1
- T1/2 (time for reaching half the maximum intensity following the maximum time) ([10]; pH 7): 108 s
- Tmax (time for reaching the maximum intensity) ([10]; pH 7): 24 s
- Imax (maximum intensity) ([10]; pH 8): 245 A.U.
- RC × 10^4 (chemiluminescence efficiency) ([10]; pH 8): 1.60 E · mole^-1
- T1/2 (time for reaching half the maximum intensity following the maximum time) ([10]; pH 8): 24 s
- Tmax (time for reaching the maximum intensity) ([10]; pH 8): 12 s
- RC = chemiluminescence quantum efficiency [7]: 0.26 10^2 E · mole^-1
- RE = excitation efficiency [7]: 0.45 10^2

Compound: Cc1cc(=O)oc2cc(N(C)C)ccc12 [COUMARINE-311, dimethylamino-7 methyl-4 coumarin]
- S = fluorescence sensitivity [4]: 40 10^3
- RF = fluorescence quantum efficiency [4]: 0.52
- RC = chemiluminescence quantum efficiency [5]: 0.17 10^2 E · mole^-1
- RE = excitation efficiency [5]: 0.32 10^2
- ε = molecular extinction coefficient, 365 nm [6]: 26900 M⁻¹ cm⁻¹
- RC = chemiluminescence quantum efficiency [7]: 0.13 10^2 E · mole^-1
- RE = excitation efficiency [7]: 0.24 10^2
